Reference: patent US12286437B2, “Cardiac sarcomere inhibitors” (Cytokinetics, Inc., priority 2021, dated 2025)

Experiments:
[1] = Mouse single dose pharmacokinetics; assay type: in vivo, C57BL/6 mice; details: male, C57BL/6, plasma, 0.5 mg/kg, IV; for Vd: read-out: Vss; for half-life: read-out: t½ (converted)
Method: Male C57BL/6 mice (18-25 g, 6-8 weeks old) were obtained from Zhejiang Vital River Laboratory Animal Technology Co., Ltd. All animals for IV administration had free access to food and water. The IV dosing was performed through tail vein. The IV dose solution for the Test Articles was prepared in 10% DMA/20% PG/70% HPβCD solution (40% w/v aqueous HPβCD) at a concentration of 0.1 mg/mL. The oral dosing suspension was prepared by suspending Test Article in 0.5% HPMC/0.1% Tween 80 in water at a concentration 0.2 mg/mL. Concentrations of IV and PO doses were measured at the end of the study. Pharmacokinetic (PK) parameters were calculated using the nominal dose values if the measured values were within 20% of the nominal values. A group of 15 mice received the IV dose where the volume was 5 mL/kg. Another group of 15 mice received by oral gavage of Test Article at 1 mg/kg. The oral dose volume was 5 mL/kg. Sparse blood samples were collected from groups of three mice via retro-orbital bleeding, placed into a K2EDTA microtainer tube and maintained on ice until centrifugation to obtain plasma. Each designated group of mice were bled at two-time points. The time points were predose (PO only), 5 (IV only), 15, 30 minutes, 1, 2, 4, 6, 8 and 24 hours postdose. Blood samples were centrifuged and the collected plasma was stored at −80° C. until analysis. Plasma samples were analyzed for Test Article concentrations using an LC/MS/MS method. Briefly, a 50 μL aliquot of each plasma sample was mixed with 100 μL of acetonitrile that contained an internal standard (IS). The mixture was vortexed and centrifuged. Ten (10) μL of the resulting solution was injected onto a reverse-phase C18 column and the resultant peaks detected on a LC/MS/MS equipped with a turbo ionspray ionization source. Sample concentrations below the limit of quantification (BLQ) were treated as zero for PK calculations. Composite PK parameters were estimated from a maximum of two sampling points per mouse and three mice per sampling point and the sparse data option of WinNonlin was used for noncompartmental analysis of the concentration-time data (Phoenix WinNonLin software, version 64; Pharsight, Mountain View, CA). The elimination rate constant (k) was calculated as the absolute value of the slope of the linear regression of logarithm of the concentration versus time for the last three data points of the concentration-time profiles. Apparent elimination half-life (t1/2) values were calculated as ln(2)/k. Area under the concentration-time curve (AUC) values were estimated using linear trapezoidal method. AUCt values were calculated from the dosing time to the last measurable concentration. AUC∞ values were calculated as the sum of the corresponding AUCt and the ratio of the last detectable concentration divided by k. Plasma clearance (CL) was calculated from Dose/AUC∞. Mean resident time (MRT) was estimated by moment analysis. Volume of distribution at steady state (Vss) was calculated from MRT∞×CL. Maximum concentration (Cmax) and time to reach Cmax (tmax) were recorded as observed. Bioavailability was calculated dAUC∞,po/dAUC∞,iv×100% where dAUC was the dose normalized AUC value. Data for compounds tested are provided in Table B. Compounds tested were prepared in accordance with the synthetic procedures described herein.

CYP1A2 = target: T1, CYP1A2 (Homo sapiens, UniProt P05177); experiment: Time-dependent inhibition of CYP1A2 in human liver microsomes; assay type: in vitro ADME; details: for (% Activity NADPH T0)/(% Activity NADPH T30): fold change; for activity at 30 min, 25 µM / activity at 0 min, 25 µM / activity at 30 min, 50 µM / activity at 0 min, 50 µM: pooled human liver microsomes, human liver microsomes; for activity at 30 min, 25 µM / activity at 30 min, 50 µM: after 30 minutes incubation, read-out: % Activity NADPH T30; for activity at 0 min, 25 µM / activity at 0 min, 50 µM: time zero, read-out: % Activity NADPH T0
T1 construct: Pooled human microsomes and selective CYP probe substrates were used; from tissue; host or cells: pooled human liver microsomes
T1 sequence (P05177 1-516): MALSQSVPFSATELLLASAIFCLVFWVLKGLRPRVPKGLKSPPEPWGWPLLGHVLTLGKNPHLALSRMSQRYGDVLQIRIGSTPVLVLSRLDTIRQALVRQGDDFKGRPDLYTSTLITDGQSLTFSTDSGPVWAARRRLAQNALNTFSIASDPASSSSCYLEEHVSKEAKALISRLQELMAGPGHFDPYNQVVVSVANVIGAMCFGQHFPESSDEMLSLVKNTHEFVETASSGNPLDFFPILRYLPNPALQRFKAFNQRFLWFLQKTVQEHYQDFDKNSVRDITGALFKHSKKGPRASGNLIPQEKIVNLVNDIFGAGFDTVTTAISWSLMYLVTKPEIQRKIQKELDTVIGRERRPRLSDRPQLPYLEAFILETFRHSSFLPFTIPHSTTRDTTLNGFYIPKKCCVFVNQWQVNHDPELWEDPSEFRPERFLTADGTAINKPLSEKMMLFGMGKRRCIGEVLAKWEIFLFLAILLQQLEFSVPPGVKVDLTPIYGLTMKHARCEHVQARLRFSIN
Method: (§1) An assessment of the time-dependent Inhibitory Potential of the test compounds against Principal Human Cytochrome P450 Isozymes using Human Liver Microsomes was also carried out using standard methods (Grimm et al, Drug Metab. Dispos., July; 37(7):1355-70. doi: 10.1124/dmd.109.026716, 2009). Pooled human microsomes and selective CYP probe substrates were used for in vitro assessment of test compounds at 25 and 50 μM as time-dependent inhibitors of […] human hepatic cytochrome P450 isozymes (CYP1A2, 2B6, 2C9, 2C19, 2D6, and 3A4). LC-MS/MS was used to quantify metabolite formation. The inhibition of each P450 enzyme in human liver microsomes was measured as the percentage decrease in the activity of marker metabolite formation as measured by LC-MS/MS compared to non-inhibited controls (=100% activity) at time zero and after 30 minutes incubation. The occurrence of any time dependent inhibition was then expressed as the fold change in enzyme activity at time zero relative to the activity after 30 minutes incubation.

CYP2C8 = target: T2, CYP2C8 (Homo sapiens, UniProt P10632); experiment: Time-dependent inhibition of CYP2C8 in human liver microsomes; assay type: in vitro ADME; details: for (% Activity NADPH T0)/(% Activity NADPH T30): fold change; for activity at 30 min, 25 µM / activity at 0 min, 25 µM / activity at 30 min, 50 µM / activity at 0 min, 50 µM: pooled human liver microsomes, human liver microsomes; for activity at 30 min, 25 µM / activity at 30 min, 50 µM: after 30 minutes incubation, read-out: % Activity NADPH T30; for activity at 0 min, 25 µM / activity at 0 min, 50 µM: time zero, read-out: % Activity NADPH T0
T2 construct: Pooled human microsomes and selective CYP probe substrates were used; from tissue; host or cells: pooled human liver microsomes
T2 sequence (P10632 1-490): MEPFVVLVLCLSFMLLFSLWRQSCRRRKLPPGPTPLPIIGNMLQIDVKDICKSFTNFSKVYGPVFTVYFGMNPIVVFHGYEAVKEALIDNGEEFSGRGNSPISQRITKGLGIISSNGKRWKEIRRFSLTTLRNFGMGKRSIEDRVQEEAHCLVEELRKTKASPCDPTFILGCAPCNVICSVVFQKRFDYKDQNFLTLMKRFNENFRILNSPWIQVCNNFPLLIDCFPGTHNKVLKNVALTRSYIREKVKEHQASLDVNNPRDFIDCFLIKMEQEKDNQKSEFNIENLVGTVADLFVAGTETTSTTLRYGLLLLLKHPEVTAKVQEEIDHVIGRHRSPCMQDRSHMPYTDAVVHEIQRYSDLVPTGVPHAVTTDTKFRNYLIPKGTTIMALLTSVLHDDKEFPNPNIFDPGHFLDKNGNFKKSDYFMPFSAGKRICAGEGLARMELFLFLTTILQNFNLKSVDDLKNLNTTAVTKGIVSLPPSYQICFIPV
Method: as §1

Row | Structure (SMILES) | clearance [1] | Vd [1] | half-life [1] | (% Activity NADPH T0)/(% Activity NADPH T30) (CYP1A2; CYP1A2, 25 μM) | (% Activity NADPH T0)/(% Activity NADPH T30) (CYP1A2; CYP1A2, 50 μM) | activity at 30 min, 25 µM (CYP1A2; CYP1A2, 25 μM) | activity at 0 min, 25 µM (CYP1A2; CYP1A2, 25 μM) | activity at 30 min, 50 µM (CYP1A2; CYP1A2, 50 μM) | activity at 0 min, 50 µM (CYP1A2; CYP1A2, 50 μM) | (% Activity NADPH T0)/(% Activity NADPH T30) (CYP2C8; CYP2C8, 25 μM) | (% Activity NADPH T0)/(% Activity NADPH T30) (CYP2C8; CYP2C8, 50 μM) | activity at 30 min, 25 µM (CYP2C8; CYP2C8, 25 μM) | activity at 0 min, 25 µM (CYP2C8; CYP2C8, 25 μM) | activity at 30 min, 50 µM (CYP2C8; CYP2C8, 50 μM) | activity at 0 min, 50 µM (CYP2C8; CYP2C8, 50 μM)
1 | CC(C)N1CC(=O)N(Cc2ccc(Cl)c(F)c2)C2(CN(c3cccnn3)C2)C1=O [Compound 8, 5-(4-chloro-3-fluorobenzyl)-8-isopropyl-2-(pyridazin-3-yl)-2,5,8-triazaspiro[3.5]nonane-6,9-dione] | 132 mL/min/kg | 5.14 L/kg | 0.66 h | 0.9 | 0.9 | 96% | 82% | 101% | 86% | 1.0 | 1.0 | 117% | 117% | 112% | 110%
2 | C[C@H]1CC[C@H](N2CC(=O)N(Cc3ccc(F)c(F)c3)C3(CN(C=O)C3)C2=O)CC1 [Compound 4, 5-(3,4-difluorobenzyl)-8-((1r,4r)-4-methylcyclohexyl)-6,9-dioxo-2,5,8-triazaspiro[3.5]nonane-2-carbaldehyde] | – | – | – | 1.1 | 1.0 | – | – | – | – | 1.0 | 1.2 | – | – | – | –
3 | Cc1cc(CN2C(=O)CN([C@H]3CC[C@H](C)CC3)C(=O)C23CN(C(N)=O)C3)ccc1F [Compound 6, 5-(4-fluoro-3-methylbenzyl)-8-((1r,4r)-4-methylcyclohexyl)-6,9-dioxo-2,5,8-triazaspiro[3.5]nonane-2-carboxamide] | 28.2 mL/min/kg | 2.52 L/kg | 1.27 h | 1.1 | 1.0 | 85% | 97% | 99% | 95% | 0.9 | 1.1 | 88% | 79% | 80% | 86%
4 | C[C@H]1CC[C@H](N2CC(=O)N(Cc3ccc(F)c(F)c3)C3(CN(C(N)=O)C3)C2=O)CC1 [Compound 5, 5-(3,4-difluorobenzyl)-8-((1r,4r)-4-methylcyclohexyl)-6,9-dioxo-2,5,8-triazaspiro[3.5]nonane-2-carboxamide] | 18.9 mL/min/kg | 4.08 L/kg | 3.08 h | 1.0 | 1.1 | 87% | 89% | 88% | 99% | 1.0 | 2.0 | 88% | 87% | 53% | 104%
5 | C[C@H]1CC[C@H](N2CC(=O)N(Cc3ccc(Cl)cc3)C3(CN(C(N)=O)C3)C2=O)CC1 [Compound 18, 5-(4-chlorobenzyl)-8-((1r,4r)-4-methylcyclohexyl)-6,9-dioxo-2,5,8-triazaspiro[3.5]nonane-2-carboxamide] | 21 mL/min/kg | 2.95 L/kg | 1.18 h | 0.9 | 1.0 | 99% | 85% | 90% | 92% | 0.7 | 1.3 | 100% | 65% | 76% | 100%
6 | CC(C)N1CC(=O)N(Cc2ccc(C(F)(F)F)cc2)C2(CN(c3cccnn3)C2)C1=O [Compound 13, 8-isopropyl-2-(pyridazin-3-yl)-5-(4-(trifluoromethyl)benzyl)-2,5,8-triazaspiro[3.5]nonane-6,9-dione] | 101 mL/min/kg | 2.25 L/kg | 0.46 h | 0.9 | 0.8 | 99% | 88% | 110% | 92% | 1.2 | 1.0 | 98% | 116% | 106% | 106%
